Test results taken from US20190211099A1, “METHODS AND COMPOSITIONS FOR TREATING CANCER WITH SIGLEC-9 ACTIVITY MODULATORS” (KING'S COLLEGE LONDON, priority 2016, published 2019).

Assays:
monocytes = assay: Calcium flux in monocytes (Fluo-4 intracellular calcium reporter); assay type: cell-based, human; settings: monocytes or macrophages, 100 μg/10^6 cells
Protocol: (§1) In addition, in a murine tumor model Siglec-E (the mouse Siglec with the most similarity to human Siglec-9), was associated with a decrease in alternatively activated macrophages (Laubli et al. (2014) PROC. NATL. ACAD. SCI. USA). As a result, the triggering of a calcium flux when MUC1-ST engaged Siglec-9 was investigated. Briefly, monocytes pre-labeled with an intracellular calcium reporter (Fluo-4; Life Technologies) were treated with MUC1-ST, MUC1-T (100 μg/10^6 cells) or a T47D monolayer, for 4 hours at 4° C. The cells were brought up to 37° C. and calcium flux was measured at 530 nm using a plate reader at the indicated time points. Where not indicated, the time point was 60 seconds. When monocytes or macrophages were treated with MUC1-ST, a Siglec-9 dependent increase in calcium influx was observed (FIGS. 13E-F). A calcium flux was also observed when monocytes and T47D cells came into contact. This effect could also be inhibited by the anti-Siglec-9 antibody.

THP-1 cells = assay: Calcium flux in differentiated THP-1 cells; assay type: cell-based, human; settings: THP-1 differentiated with PMA, 100 μg/mL MUC1-ST
Protocol: as §1
The intracellular effects of MUC1-ST binding to Siglec-9 were further explored in the monocytic cell line, THP-1. […] THP-1 cells were further treated with DMSO or the MEK/ERK inhibitor PD98059 at 1004, and the concentration of PAI-1, M-CSF and kynurenine in cell supernatants were measured as described above. […]

SHP2 = assay: Activation of SHP2 after MUC1-ST binding; assay type: cell-based, human
Protocol: ELISAs for IL-6, IL-12p70, TGF-β1, PAI-1, M-CSF, EGF, SHP2, phospho-SHP2 (Biotechne) were all carried out as per manufacturer's instructions.
A Western blot to assay phosphorylation of SHP, which is recruited by phosphorylated Siglec-9 (Avril et al. (2004) supra) was conducted. Monocytes were incubated with MUC1-ST and lysed as described above, and the resulting lysates were separated by SDS PAGE (10% gel) before being transferred, blocked and probed with anti-SHP1 (Santa Cruz), anti-phospho SHP1 (Abcam) and appropriate secondary antibodies. Phosphorylation of SHP was not observed after MUC1-ST binding to Siglec-9 on primary monocytes (FIG. 13C) although again, phosphorylation of SHP1 was observed when Siglec-9 was activated via antibody cross-linking. No activation of SHP2 was observed.

Siglec-9 = Siglec-9 (Homo sapiens, UniProt Q9Y336); assay: Binding of biotinylated MUC1-ST to primary monocytes and monocyte-derived macrophages (flow cytometry), with or without blocking antibody; assay type: cell-based; set-up: endogenous in cells; host or cells: THP-1 and U937 cells; settings: primary monocytes, monocyte-derived macrophages and AML lines
Siglec-9, sequence (Q9Y336 18-463): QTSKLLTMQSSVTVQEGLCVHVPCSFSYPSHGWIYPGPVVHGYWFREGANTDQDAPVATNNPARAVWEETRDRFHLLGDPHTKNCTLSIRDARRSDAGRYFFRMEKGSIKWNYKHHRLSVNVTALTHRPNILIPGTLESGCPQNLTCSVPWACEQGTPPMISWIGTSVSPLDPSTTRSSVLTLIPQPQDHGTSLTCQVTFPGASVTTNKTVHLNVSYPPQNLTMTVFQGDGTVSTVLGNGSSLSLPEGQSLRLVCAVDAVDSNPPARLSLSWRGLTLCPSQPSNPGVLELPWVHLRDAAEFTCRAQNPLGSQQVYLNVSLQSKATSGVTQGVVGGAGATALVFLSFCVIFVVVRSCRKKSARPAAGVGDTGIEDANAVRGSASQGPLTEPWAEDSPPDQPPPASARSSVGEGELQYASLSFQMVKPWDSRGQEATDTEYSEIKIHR
Protocol: Both the cell phenotype staining and neutralization studies described in the Examples were performed using the following antibodies (all anti-human): Siglec-9 (Biotechne; 191240), Siglec-9 FITC (Biotechne; 191240), Siglec-3 (Biotechne; 6C5/2), Siglec-7 (Biotechne; AF1138), Siglec-3 FITC (BD; P67.6), Siglec-7 PE (Biolegend; 6-434), Siglec-10 PE (Biolegend; 5G6), Siglec-1 (abcam; 7D2), HLA-DR FITC (Beckman Coulter; IM0463U), CD16 FITC (Biolegend; B73.1), CD14 FITC (BD 555397), CD69 PE (Beckman Coulter; IM1943), CD25 FITC (ABX228FITC), CD86 PE (Beckman Coulter; IM2729U), CD40 FITC (BD 555588), CD83 PE (Beckman Coulter; IM2218), CD163 PE (Biolegend; GHI/61), CXCR1 FITC (BD Pharmongen; 551126), CD45 PC5 (Beckman Coulter; IM2653U), CD206 PE (ebioscience; 19.2), PD-L1 PE (Biolegend; 29E.2A3), CD36 (Santa Cruz; H-300), TGFbetaRII (Bio-Techne; AF-241), IL-6Rα (Tocilizumab; Roche. A generous gift from Dr. Valerie Corrigall). Cells were suspended in PBS+0.5% BSA (2×10^5 cells/100 μL/sample) and incubated with Abs according to the manufacturer's instructions. At least 1×10^4 events were evaluated using either Epics XL, (Beckman Coulter) or FACSCalibur (BD Biosciences) flow cytometers. […]
To investigate the interaction of MUC1-ST with cells of the immune system, immune cell subsets were obtained as follows. […] Purity was assessed at >95% by staining with relevant antibodies. […]

Substance: NeuAcα2,3Galβ1-3GalNAc linked via a Ser/Thr of MUC1 [MUC1-ST]
- calcium influx (monocytes): increase
- calcium flux (THP-1 cells): induce calcium flux
- activation of SHP2 (SHP2): No activation
- binding to cells (Siglec-9): found to bind
